pIC50: −log10 of the molar value.
Assays:
[1] = molecular target: T1, amyloid β peptide aggregates (Homo sapiens (Human), UniProt P05067); test: Model experiment of in-vitro diagnostic agent (colour change of solution)
Procedure: Amyloid β peptide aggregates were prepared by the method described in test example 6, and caused to precipitate in the solution by prolonging the reaction time. After the aggregates were prepared in this manner, the precipitation containing the amyloid β peptide aggregates and a supernatant not containing the amyloid β peptide aggregates were separated. The precipitation containing the amyloid aggregates was suspended at a concentration of 100 μM, in a buffer. Then, each of compounds 23 and 1 was dissolved at a concentration of 20 μg/ml in a 50 mM phosphate buffer (pH 7.5) containing 100 mM NaCl. For each compound, four kinds of liquid mixtures were prepared, that is, a liquid mixture obtained by adding 100 μl of a buffer into 100 μl of the compound containing solution (A of FIG. 13); a liquid mixture obtained by adding 100 μl of a buffer in which amyloid β peptides before agglutination reaction were dissolved, to 100 μl of the compound containing solution (B of FIG. 13); a liquid mixture obtained by adding 100 μl of a buffer in which amyloid β peptide aggregates were suspended, to 100 μl of the compound containing solution (C of FIG. 13); and a liquid mixture obtained by adding 100 μl of a buffer in which amyloid β peptide aggregates were suspended, to 100 μl of a buffer not containing a compound (D of FIG. 13). Then, the four kinds of liquid mixtures were left to stand at room temperature. […] Only the sample in which compound 1 and amyloid β peptide aggregates were mixed began to be stained in red after 5 minutes, and the color became gradually stronger and changed into strong red after about 30 minutes. […] When the absorption spectrum of the sample that had turned into red was measured, the peak had shifted towards a longer wavelength. […] As a result, it is considered that the keto/enol equilibrium in the solution was lost, and structural changes happened, that is, the keto bodies newly turned into enol bodies in the solution.

[2] = molecular target: amyloid β peptide aggregates (1-40) (Homo sapiens (Human), UniProt P05067); type: binding; settings: aggregates 1 μM, thioflavin-T 3 μM, compound 0.02 to 20 μM, 30 minutes at 23° C., pH 7.4; read-out: Amyloid binding property (IC50)
amyloid β peptide aggregates (1-40), sequence (P05067 672-711): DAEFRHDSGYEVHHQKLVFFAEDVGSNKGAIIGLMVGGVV
Procedure: The binding capacity of the compounds to an amyloid β peptide aggregate was quantitatively measured by a thioflavin-T fluorescence inhibition test. […] The resultant solution was cause to react for 30 minutes at 23° C. with the light shielded. Then, the fluorescence of thioflavin-T was measured under a condition of Ex=440 nm, Em=490 nm, Cutoff filter=475 nm. The IC50 values were calculated by using an analysis software, GraphPad PRISM Ver.5 (GraphPad Software, Inc.).

[3] = molecular target: T1, amyloid β peptide aggregates; test: Quantity determination of amyloid β aggregates by flow cytometry with anti-Aβ antibody microspheres; settings: FACS, 5 to 60 minutes at 4° C., background of nonspecific IgG1 microspheres subtracted
Procedure: The washing operation was performed as follows: 0.75 mL of PBS-T was added, the resultant mixture was centrifuged at 10,000×G for 5 minutes, and then the supernatant was removed. […] During the reaction, the mixture was agitated every 5 to 15 minutes. After the reaction, the microspheres were washed 3 times by the same method above, then suspended in PBS-T 0.25 mL, and kept at 4° C. until they were used. Negative control microspheres were prepared by use of a nonspecific mouse IgG1 antibody (by SIGMA, No. M 9269, mouse myeloma-derived IgG1, 1 mg/mL) by the same method. […] By subtracting as a background the analysis value of the negative control microspheres to which the nonspecific mouse IgG1 antibody was bound, the number of counts of anti Aβ antibody-specific fluorescence positive microsphere particles was determined.

senile plaques = test: Brain tissue staining after in vivo administration; set-up: species or system mouse
Procedure: The brain of the mouse scanned by ^19F-MRI in test example 2 was taken out and fixed for 2 days in a 4%-formalin solution, and then placed in a 15%-sucrose solution for cryoprotection. Then, a 20 μm-thick slice was created by a cryostat. Next, the slice was caused to react with a rabbit antihuman amyloid β polyclonal antibody (IBL, 0.2 μg/ml) at 4° C. overnight. Further, the sample was washed with PBS-T for 10 minutes 3 times, and then caused to react with Alexa 647 anti-rabbit IgG antibody (Molecular Probes, 500-fold dilution) for 4 hours at room temperature. This sample was washed with PBS-T for 10 minutes 3 times, and then counterstained with cresyl violet for 1 minute. Then, the sample was further washed with distilled water, and then enclosed with glycerol, and this sample was used for observation. The binding capacity of the compound to a senile plaque was observed by an inverted fluorescence microscope. It should be noted that a compound image was measured by use of the FITC filter and an amyloid β protein image was measured by means of the Cy5 filter. The same treatment was performed onto a normal mouse.

senile plaque = test: 19F-MR image measurement in amyloid precursor protein transgenic mouse (Tg2576); type: in vivo; settings: tail vein, 8 mg/ml 250 μl, measured for 3 hours after 3 hours post administration
Procedure: A quantity of 4.5 mg of compound (I) was measured, and 0.112 ml of Cremophol EL was added to the measured compound. The compound was dissolved by use of a glass stick while the mixture being heated. Then, 0.45 ml of saline was added to the mixture to prepare an administration solution (8 mg/ml).
This administration solution 250 μl was administered, in one shot (about 90 seconds), to the tail vein of an amyloid precursor protein transgenic mouse (Tg2576, created according to the method disclosed in Science, 274,99 (1996)) under anesthesia by pentobarbital sodium.
After the administration was ended, with the mouse under anesthesia, the head of the mouse was continuously measured in units of 1 hour by use of an MRI device. Then, pieces of data were added to create images. ^19F-MRI brain images were obtained by chemical shift imaging method (CSI method). The MRI device that was used was 7T Unity Inova MR Scanner (by Varian).

[4] = molecular target: T1, amyloid β peptide aggregates; test: Binding to and release from precipitated amyloid β peptide aggregates (absorbance of supernatant)
Procedure: Each of compound 23, compound 1, and compound 24 is dissolved at a concentration of 2 μg/mL, in a phosphate buffer, and then amyloid β peptide aggregates are added to each solution, and the resultant solution is caused to react for 1 hour. Then, the solution is centrifuged for 10 minutes at 6,000 rpm, to separate the amyloid β peptide aggregates. A supernatant was removed, and an absorbance measurement was performed to measure the quantity of the compound that had not bound to the amyloid peptide aggregates and that were contained in the supernatant. The obtained quantity was subtracted from the original quantity of the compound, whereby the quantity of the compound that had bound to the amyloid β peptide aggregates was calculated.
Next, the precipitated amyloid β peptide aggregates were washed, a buffer was added thereto, and the quantity of the compound that got released was measured. Then, the rate of the compound that had bound to amyloid β peptide aggregates and then was eluted into the buffer was calculated using the original quantity of the compound as 100%.

[5] = compound 20 μg/ml solution mixed with amyloid β peptide aggregates, room temperature

T1 sequence (P05067 672-711): as above

For COC(=O)CCC(C(=O)/C=C/c1ccc(O)c(OC(F)(F)F)c1)C(=O)/C=C/c1ccc(O)c(OC(F)(F)F)c1 [Compound 1, 1,7-bis(4′-hydroxy-3′-trifluoromethoxyphenyl)-4-methoxycarbonylethyl-1,6-heptadiene-3,5-dione], the “time at which colour changed into strong red” value [1, 5] was “about 30 minutes”, the “time at which sample began to be stained in red” value [1, 5] was 5 min and the “colour of sample with amyloid β peptides before agglutination reaction” value ([1]; compound 20 μg/ml solution mixed with non-aggregated amyloid β peptides) was “did not change”. The pIC50 [2] was 6.36, the “counts of fluorescence positive microsphere particles depending on aggregate concentration” value [3] was “quantitativeness was confirmed” and the “transmissiveness through the blood-brain barrier” value (senile plaques; Tg2576 mouse after i.v. administration) was “confirmed”. For the same molecule, the “binding to senile plaques in vivo” value (senile plaques; brain slices of Tg2576 mouse after i.v. administration, fluorescence vs amyloid β antibody stain) was “sufficient binding”, the “19F-MRI signal in brain” value (senile plaque) was “signals that are assumed to be corresponding to a senile plaque were detected in the brain” and the “binding rate to amyloid β peptide aggregates” value ([4]; compound 2 μg/mL in phosphate buffer, 1 hour reaction) was 57%. The “rate of compound released (eluted into buffer) from amyloid β peptide aggregates” value ([4]; washed precipitated aggregates, buffer added, original quantity as 100%) was “highest value”.

Reference: US8956589B2, “Imaging diagnostic agent and extracorporeal diagnostic agent for incurable neurological diseases” (Shiga University of Medical Science, priority 2009, dated 2015)
